Assay results: patent US4048431A, “Alkylated derivatives of antibiotic BM123γ” (American Cyanamid Company, priority 1975, dated 1977)

What follows are substances tested on Escherichia coli US311 (assay: in vivo protection of mice against lethal Escherichia coli US311 infection (single subcutaneous dose)). Conditions: Carworth Farms CF-1 mice, about 20 gm., infected intraperitoneally with lethal dose of E. coli US311 (10^-3 TSP dilution of 5 hour TSP blood culture).
Set-up: species or system Escherichia coli US311 in Carworth Farms CF-1 mice
Experimental: These new substances show high in vivo antibacterial activity in mice against Escherichia coli US311 when administered by a single subcutaneous dose to groups of Carworth Farms CF-1 mice, weight about 20 gm., infected intraperitoneally with a lethal dose of this bacteria in a 10^- 3 trypticase soy broth TSP dilution of a 5 hour TSP blood culture. In Table VI below is set forth the in vivo activity of typical products of this invention (prepared from the indicated carbonyl reagents) against Escherichia coli US311 in mice. The activity is expressed in terms of the ED50 or the dose in mg./kg. of body weight required to protect 50% of the mice against E. coli.

| Substance | ED50 (dose required to protect 50% of the mice against E. coli) |
| --- | --- |
| 1-methyl-4-chlorobutyl-BM123γ | 0.37 mg./kg. of body weight |
| 1-methyl-4-hydroxybutyl-BM123γ | 0.18 mg./kg. of body weight |
| 1-methyl-4-piperidyl-BM123γ | 0.75 mg./kg. of body weight |
| 1-methyl-5-pentenyl-BM123γ | 0.18 mg./kg. of body weight |
| 1-methyl-butyn(-2-)yl-BM123γ | < 2.0 mg./kg. of body weight |
| 1-methyl-hexen-4-yl-BM123γ | 0.18 mg./kg. of body weight |
| 1-methyl-penten(-4-)yl-BM123γ | 0.38 mg./kg. of body weight |
| 1-methylbutyl-BM123γ | < 0.12 mg./kg. of body weight |
| 1-methyldecyl-BM123γ | > 2 mg./kg. of body weight |
| 1-methylheptyl-BM123γ | 0.38 mg./kg. of body weight |
| 1-methylhexyl-BM123γ | 0.38 mg./kg. of body weight |
| 1-methylnonyl-BM123γ | 0.18 mg./kg. of body weight |
| 1-methyloctyl-BM123γ | 0.37 mg./kg. of body weight |
| 1-methylpentyl-BM123γ | 0.38 mg./kg. of body weight |
| 1-methylpropyl-BM123γ | < 0.12 mg./kg. of body weight |
| 1-methyltridecyl-BM123γ | 2.0 mg./kg. of body weight |
| 1-propylbutyl-BM123γ | 0.25 mg./kg. of body weight |
| 1-propylpentyl-BM123γ | 0.39 mg./kg. of body weight |
| 2,2,4,4-tetramethylcyclopentyl-BM123γ | 0.75 mg./kg. of body weight |
| 2,2-dimethylbutyl-BM123γ | 0.12 mg./kg. of body weight |
| 2,2-dimethylpropyl-BM123γ | 0.18 mg./kg. of body weight |
| 2,4,4-trimethylcyclopentyl-BM123γ | 0.3 mg./kg. of body weight |

| Substance | ED50 (dose required to protect 50% of the mice against E. coli) |
| --- | --- |
| 2,4-dimethylcyclopentyl-BM123γ | 0.18 mg./kg. of body weight |
| 2-(1-cyclohexen)cyclohexyl-BM123γ | 0.19 mg./kg. of body weight |
| 2-(p-methoxyphenyl)ethyl-BM123γ | 0.18 mg./kg. of body weight |
| 2-(tert-butylcarbamoyl)-1-methyl-ethyl-BM123γ | 0.38 mg./kg. of body weight |
| 2-acetamido-1-methylpropyl-BM123γ | 0.50 mg./kg. of body weight |
| 2-cyclohexenyl-BM123γ | 0.25 mg./kg. of body weight |
| 2-cyclohexylcyclohexyl-BM123γ | 0.75 mg./kg. of body weight |
| 2-cyclopentylcyclopentyl-BM123γ | 0.37 mg./kg. of body weight |
| 2-ethyl-2-(3,4-dimethoxyphenyl)ethyl-BM123γ | 1.0 mg./kg. of body weight |
| 2-ethyl-2-butenyl-BM123γ | 0.18 mg./kg. of body weight |
| 2-ethylcyclohexyl-BM123γ | 0.19 mg./kg. of body weight |
| 2-ethylcyclopentyl-BM123γ | 0.12 mg./kg. of body weight |
| 2-ethylhexyl-BM123γ | 0.37 mg./kg. of body weight |
| 2-ethylidenecyclohexyl-BM123γ | 0.12 mg./kg. of body weight |
| 2-methylcyclopentyl-BM123γ | 0.25 mg./kg. of body weight |
| 2-phenylcyclohexyl-BM123γ | 0.38 mg./kg. of body weight |
| 2-phenylethyl-BM123γ | 0.18 mg./kg. of body weight |
| 3,3-dimethylcyclohexen(-4-)yl-BM123γ | 0.37 mg./kg. of body weight |
| 3,5-dimethylcyclohexyl-BM123γ | < 0.12 mg./kg. of body weight |
| 3-methyl-6-isopropylcyclohexyl-BM123γ | 0.38 mg./kg. of body weight |
| 3-methylcyclopentyl-BM123γ | 0.25 mg./kg. of body weight |
| 3-quinuclidinyl-BM123γ | 0.39 mg./kg. of body weight |

| Substance | ED50 (dose required to protect 50% of the mice against E. coli) |
| --- | --- |
| 3-tert-pentylcyclopentyl-BM123γ | 0.5 mg./kg. of body weight |
| 4-t-butylcyclohexyl-BM123γ | 0.12 mg./kg. of body weight |
| 4-tetrahydrothiopyranyl-BM123γ | 0.38 mg./kg. of body weight |
| 5-methoxyl-2-tetralyl-BM123γ | 0.18 mg./kg. of body weight |
| (1-methylcyclo-3-hexenyl)methyl-BM123γ | 0.18 mg./kg. of body weight |
| (2-carboxy-1-carboxymethyl)ethyl-BM123γ | 0.5 mg./kg. of body weight |
| adamantyl-2-BM123γ | 0.25 mg./kg. of body weight |
| bicyclo[3.2.1]octanyl-2-BM123γ | < 0.25 mg./kg. of body weight |
| cyclobutyl-BM123γ | 0.38 mg./kg. of body weight |
| cycloheptyl-BM123γ | 0.3 mg./kg. of body weight |
| cyclohexyl-BM123γ | 0.75 mg./kg. of body weight |
| cyclononyl-BM123γ | 0.18 mg./kg. of body weight |
| cyclooctyl-BM123γ | 0.18 mg./kg. of body weight |
| cyclopentyl-BM123γ | 0.25 mg./kg. of body weight |
| decahydro-1-methyl-2-naphthyl-BM123γ | 0.25 mg./kg. of body weight |
| decahydro-3-methyl-2-naphthyl-BM123γ | 0.37 mg./kg. of body weight |
| ethyl-BM123γ | 0.38 mg./kg. of body weight |
| isopropyl-BM123γ | < 0.12 mg./kg. of body weight |
| methyl-BM123γ | 0.12 mg./kg. of body weight |
| norbornyl-BM123γ | 0.18 mg./kg. of body weight |
| trans-2-methyl-2-butenyl-BM123γ | 0.18 mg./kg. of body weight |
| trans-2-methyl-2-pentenyl-BM123γ | 0.18 mg./kg. of body weight |
